# Experimental data published in US6211215A, “Heterocyclic compounds, their production and use” (Takeda Chemical Industries, Ltd., priority 1996, dated 2001).
# Experiments:
# MRC5 = experiment: Selective in vitro inhibition of breast cancer cell growth; assay type: cell-based; conditions: Homo sapiens, 72 h; Normal MRC5; 3 days; SRB; read-out: IC50, inhibition of cell proliferation
# Procedure: (§1) 100 μl (containing 2,000 cells) of a cell suspension of various human breast cancer cell lines shown in [Table 6] was seeded in each well of the 96-well microtiter plates. The cells were incubated at 37° C. in a 5% carbon dioxide gas incubator. Next day, 100 μl of a 2 fold serial dilution of a compound solution was added to each well. The cultures were incubated for 3 days. The solution containing the compound was removed and the cells were washed with water. To the cells was added a 0.4% (V/W) dye SRB (dissolved in 1% acetic acid) solution to fix and stain the cell protein. The dye solution was removed and the fixed and stained cell protein was washed. The protein-bound dye was extracted with 200 μl of 10 mM Tris buffer. The optical density of the extracted dye was determined at the wavelength of 540 nm to estimate the quantity of the cells in terms of the protein quantity. Designating the protein quantity in the control to which no compound solution was added as 100%, the proportion of the residual protein quantity in each treated group was calculated, and IC50, which was the concentration of the compound required to inhibit the residual protein quantity to 50% the quantity of the control, was calculated.
# HSC-1 = experiment: as above; assay type: cell-based; conditions: Homo sapiens, 72 h; Epidermal cancer HSC-1; 3 days; SRB; read-out: IC50, inhibition of cell proliferation
# Procedure: as §1
# BT-20 = experiment: as above; assay type: cell-based; conditions: Homo sapiens, 72 h; Mammary cancer BT-20; 3 days; SRB; read-out: IC50, inhibition of cell proliferation
# Procedure: as §1
# MDA-MB-453 = experiment: as above; assay type: cell-based; conditions: Homo sapiens, 72 h; Mammary cancer MDA-MB-453; 3 days; SRB; read-out: IC50, inhibition of cell proliferation
# Procedure: as §1
# [1] = Body weights of mice during the in vivo tumor experiments; design: species or system Balb/C strain athymic nude mice
# Procedure: 5,000,000 cells of human breast cancer cell line, MDA-MB-453, were suspended in a gelmatrix solution. The suspension was subcutaneously implanted at the breast in 7-week-old female Balb/C strain athymic nude mice (Friedman R. et al., Proceedings of the National Academy of Sciences of the U.S.A. Vol. 87, pp.6698-6702, 1990). Twelve days after the implantation, the diameters of tumors were determined. For the experiment were used 5 mice per group with similar tumor size. […] On the day when the dosing was ended, the diameters of tumors were measured. Tumor volume was calculated by the following formula: volume of tumor=longest diameter×shortest diameter×shortest diameter×1/2. […] The body weights of mice administered with Compound 8 of the present invention were measured during the experiment to observe no decrease.
# 5,000,000 cells of human breast cancer cell line, MDA-MB-453, were suspended in a gelmatrix solution. […] Twelve days after the implantation, the diameters of tumors were determined. […] On the day when the dosing was ended, the diameters of tumors were measured. Tumor volume was calculated by the following formula: volume of tumor=longest diameter×shortest diameter×shortest diameter×1/2. […] The body weights of mice administered with compounds of the present invention were measured during the experiment to observe no decrease. […]
# HER2 = HER2 (Homo sapiens, UniProt P04626); experiment: Inhibition of phosphorylation of receptor tyrosine in human breast cancer cells (1), T-47D, heregulin-stimulated; assay type: cell-based
# Procedure: Human breast cancer cell line T-47D was cultured for 7 days in the medium containing 0.1% bovine fetus albumin instead of serum to deprive the medium of estrogen. On the 7th day, 1,000 μl of the cell suspension (250,000 cells) was seeded in each well of the 24-well plates. The culture were incubated at 37° C. in a 5% carbon dioxide gas incubator. On the next day, 100 μl of the 10-fold serial dilution of each compound solution was added to each well and, 2 hours later, 0.5 μg/ml of heregulin was added to it. After 5 minutes the extract solution was added to it to terminate the reaction, and the protein fraction was extracted. To the extract was added an antibody against the human receptor type oncogene HER2 to precipitate the human receptor type oncogene HER2 protein by the reaction of immunoprecipitation. The precipitate was fractionated by the protein electrophoresis. The protein in the electrophoretic gel was transferred to a nylon filter. The filter was allowed to react with the phosphorylated tyrosine-specific antibody. The reaction product was fluorescence-labeled to expose a photofilm. The intensity of the exposure on the photofilm was quantitated by an image-analyzing apparatus. The proportion of the phosphorylation of HER2 tyrosine in the cells added with a compound solution of each concentration was calculated designating the phosphorylation of HER2 tyrosine in the heregulin-added cells as 100%.
# Sequence of HER2 (P04626 23-1255): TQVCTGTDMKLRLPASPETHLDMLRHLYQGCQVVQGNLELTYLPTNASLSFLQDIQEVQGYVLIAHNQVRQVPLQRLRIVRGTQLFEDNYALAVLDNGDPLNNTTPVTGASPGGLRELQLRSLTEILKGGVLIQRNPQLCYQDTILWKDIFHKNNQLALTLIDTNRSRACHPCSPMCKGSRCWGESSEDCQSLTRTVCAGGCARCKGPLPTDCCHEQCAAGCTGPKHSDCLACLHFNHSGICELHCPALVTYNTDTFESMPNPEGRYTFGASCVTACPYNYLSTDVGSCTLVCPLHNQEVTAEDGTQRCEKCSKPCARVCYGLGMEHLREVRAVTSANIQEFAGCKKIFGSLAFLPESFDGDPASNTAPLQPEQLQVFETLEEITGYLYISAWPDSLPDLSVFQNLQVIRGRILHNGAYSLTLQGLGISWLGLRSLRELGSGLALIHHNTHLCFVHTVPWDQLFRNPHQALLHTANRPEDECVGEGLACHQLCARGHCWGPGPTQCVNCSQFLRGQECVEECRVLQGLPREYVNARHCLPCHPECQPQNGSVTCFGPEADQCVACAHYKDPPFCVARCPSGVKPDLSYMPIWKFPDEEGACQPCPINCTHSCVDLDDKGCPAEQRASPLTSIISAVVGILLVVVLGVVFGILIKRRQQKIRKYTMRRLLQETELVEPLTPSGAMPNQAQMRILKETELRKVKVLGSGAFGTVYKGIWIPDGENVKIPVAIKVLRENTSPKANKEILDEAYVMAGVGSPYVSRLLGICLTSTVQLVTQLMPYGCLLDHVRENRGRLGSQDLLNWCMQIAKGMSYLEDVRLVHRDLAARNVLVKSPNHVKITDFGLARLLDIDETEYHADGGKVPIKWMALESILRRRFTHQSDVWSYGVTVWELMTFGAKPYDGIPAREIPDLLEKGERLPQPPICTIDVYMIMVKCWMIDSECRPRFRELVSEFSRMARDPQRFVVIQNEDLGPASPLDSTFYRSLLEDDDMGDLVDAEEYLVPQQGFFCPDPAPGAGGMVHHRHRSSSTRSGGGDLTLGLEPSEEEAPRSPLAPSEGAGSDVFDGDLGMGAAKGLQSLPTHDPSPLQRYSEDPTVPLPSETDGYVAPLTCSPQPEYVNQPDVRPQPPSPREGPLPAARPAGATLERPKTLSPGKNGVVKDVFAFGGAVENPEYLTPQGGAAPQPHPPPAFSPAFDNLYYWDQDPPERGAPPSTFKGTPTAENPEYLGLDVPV
smiles,measurement,setting,value
"C(=C\c1nc(COc2ccc(CCCn3ccnc3)cc2)co1)/c1ccccc1 [Compound 8, 4-[4-[3-(1-imidazolyl)propyl]phenoxymethyl]-2-[(E)-2-phenylethenyl]oxazole]",IC50,MRC5,15000 nM
same,IC50,HSC-1,2100 nM
same,IC50,BT-20,520 nM
same,IC50,MDA-MB-453,250 nM
same,Body weight change,"[1]; Test Example 8, MDA-MB-453-bearing mice",no decrease
same,Body weight change,"[1]; Test Example 11, LNCaP-bearing mice, oral 30 mg/kg twice daily 21 days",no decrease
same,activity at 0.4 µM,"HER2; T47D, 0.4 μM, heregulin control = 100%, read-out: Phosphorylation of the tyrosine residue (%)",62%
same,activity at 1.6 µM,"HER2; T47D, 1.6 μM, heregulin control = 100%, read-out: Phosphorylation of the tyrosine residue (%)",52%
same,activity at 6.3 µM,"HER2; T47D, 6.3 μM, heregulin control = 100%, read-out: Phosphorylation of the tyrosine residue (%)",33%
same,activity at 25 µM,"HER2; T47D, 25 μM, heregulin control = 100%, read-out: Phosphorylation of the tyrosine residue (%)",20%
same,Inhibition of receptor tyrosine phosphorylation,HER2; heregulin,inhibit dose-dependently the phosphorylation reaction of the tyrosine residue in the receptor protein
